One test concerns the target T1, Akt1 (Homo sapiens, UniProt P31749).
T1 construct: purchased life technology lot11629928C (lot number only, catalogue number not given)
As to the kind of experiment: Akt1 kinase inhibition, LANCE TR-FRET. The test is classed as biochemical. The protocol: (§1) Study 1: The Inhibitory Effect of the Compounds on the Activity of Akt1, Akt2 and Akt3
Akt1 protein (life technology # lot11629928C)
(§2) In this experiment, a homogeneous time-resolved fluorescence […] energy transfer (LANCE TR-FRET®) method was used. In the assay plate, enzymes, biotinylated polypeptide substrates and compound to be tested were mixed, and ATP was added to initiate the reaction and the mixture was incubated. After that, EDTA was added to terminate the reaction while an Eu-labeled antibody was added to carry out the reaction and the reaction was then detected. The assay plate was analyzed by PE company's Envision, and the analysis mode was TR-FRET. The data were represented by fluorescence signals at 665 nm and 615 nm, respectively.
(§3) Compound formulation: compound to be tested and the reference compound were diluted with 100% DMSO, the initial concentration of the compound was 10 uM, and diluted by 10 times in a 3-fold gradient. Transfer the compound to the cell plate and duplicate each well.
(§4) Kinase assay: the enzyme and substrate were mixed with different concentrations of pre-diluted compounds. […] Leave at room temperature for 15 min and diplicate each concentration. ATP was added, and the final concentrations were 36 uM, 360 uM and 160 uM in Akt1, Akt2, and Akt3 kinase reactions, respectively, and the reaction was carried out for 90 min at room temperature (in which negative and positive controls were set). After the reaction was completed, the antibody was added and the mixture was detected, and the cells were incubated for 60 min at room temperature, and then collected by Evnvision. Data analysis and fitting according to *Lfit5 software.
For orientation: TR-FRET usually uses a lanthanide donor and a delayed reading to cut background.

The target of a further test is T2, Akt2 (Homo sapiens, UniProt P31751).
T2 construct: purchased life technology lot 28870GG (lot number only, catalogue number not given)
T2 sequence (P31751 whole entry): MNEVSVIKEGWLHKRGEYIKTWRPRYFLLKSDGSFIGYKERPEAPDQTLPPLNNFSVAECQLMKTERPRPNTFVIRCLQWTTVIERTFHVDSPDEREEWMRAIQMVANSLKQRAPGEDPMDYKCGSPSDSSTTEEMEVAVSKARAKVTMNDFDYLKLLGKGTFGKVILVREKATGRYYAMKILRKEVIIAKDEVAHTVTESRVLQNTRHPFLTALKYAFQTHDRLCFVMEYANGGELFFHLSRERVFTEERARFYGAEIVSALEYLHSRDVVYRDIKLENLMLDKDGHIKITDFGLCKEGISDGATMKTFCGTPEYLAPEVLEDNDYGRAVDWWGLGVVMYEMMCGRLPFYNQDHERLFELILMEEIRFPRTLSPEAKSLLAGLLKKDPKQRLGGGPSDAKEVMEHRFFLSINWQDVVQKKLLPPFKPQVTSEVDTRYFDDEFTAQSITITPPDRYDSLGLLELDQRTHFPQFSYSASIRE
The test is described as follows: Akt2 kinase inhibition, LANCE TR-FRET. The settings on record: Akt2 2 nM, ATP 360 uM, 90 min at room temperature. The test is classed as biochemical. The protocol: as §1
Akt2 protein (life technology # lot 28870GG)
as §2, §3, §4

A further test has as its target T3, Akt3 (Homo sapiens, UniProt Q9Y243).
T3 construct: purchased life technology lot 1715050B (lot number only, catalogue number not given)
The test is described as follows: Akt3 kinase inhibition, LANCE TR-FRET. The test is classed as biochemical. To be noted: Akt3 2 nM, ATP 160 uM, 90 min at room temperature. The protocol:
as §1
Akt3 protein (life technology # lot 1715050B)
as §2, §3, §4

Another test has as its system LNCaP cells. As to the kind of experiment: LNCaP cell activity, CellTiter-Glo live cell detection. The test is classed as cell-based. The settings on record: Homo sapiens, 72 h, 1000 cells per well, incubated 3 days, starting concentration 10 uM. The protocol: Study 2: inhibitory effects of compounds on LNCaP cell activity
The amount of ATP directly reflects the number and the state of the cells, and the number of live cells can be detected by quantitatively measuring ATP. The live cell assay kit contains luciferase and its substrate. Through the participation of ATP, luciferase can catalyze the substrate, emit a stable optical signal, and the amount of ATP in the cell was determined by detecting the intensity of the signal. Wherein, the optical signal is proportional to the amount of ATP in the cell, and ATP is positively correlated with the number of live cells, so that the cell proliferation can be detected. The assay board is analyzed by PE company's Envision.
LNCaP cell was separately seeded in a 384-well plate, each well contains 1000 cells. The cell plate was placed in a carbon dioxide incubator and incubated overnight.
A duplicated experiment was performed with 10 concentrations of compound in a 3-fold dilution with Bravo.
Compound was transferred to the cell plate with a starting concentration of 10 uM. The cell plate was incubated in a carbon dioxide incubator for 3 days.
The Promega CellTiter-Glo reagent was added to the cell plate and incubated for 10 min at room temperature to stabilize the optical signal. Read the data by a PerkinElmer Envision multi-label analyzer.
In general terms: In ATP-based viability assays light output follows the ATP content of the culture.

For 31 compounds, IC50 results are on record in patent US10654868B2, “Dihydropyrazole azepine compound serving as Akt inhibitor” (HARBIN ZHENBAO PHARMACEUTICAL CO., LTD., priority 2016, dated 2020).

A value given as a limit tells only on which side of the number the result lay.

In general, IC50 refers to the concentration that inhibits the measured activity by half.

T1 sequence (P31749 whole entry): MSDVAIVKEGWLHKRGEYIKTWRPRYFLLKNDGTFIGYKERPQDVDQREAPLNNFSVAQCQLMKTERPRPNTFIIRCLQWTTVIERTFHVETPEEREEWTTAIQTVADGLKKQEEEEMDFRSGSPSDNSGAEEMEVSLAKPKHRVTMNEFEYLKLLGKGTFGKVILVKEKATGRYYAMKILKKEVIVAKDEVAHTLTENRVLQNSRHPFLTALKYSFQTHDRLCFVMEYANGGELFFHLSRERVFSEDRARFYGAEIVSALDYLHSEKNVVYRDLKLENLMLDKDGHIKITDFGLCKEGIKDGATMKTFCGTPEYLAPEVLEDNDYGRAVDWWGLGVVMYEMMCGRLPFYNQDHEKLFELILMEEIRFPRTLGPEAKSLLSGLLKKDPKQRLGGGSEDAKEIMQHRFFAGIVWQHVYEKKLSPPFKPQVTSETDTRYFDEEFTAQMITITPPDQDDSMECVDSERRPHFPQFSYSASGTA
T3 sequence (Q9Y243 whole entry): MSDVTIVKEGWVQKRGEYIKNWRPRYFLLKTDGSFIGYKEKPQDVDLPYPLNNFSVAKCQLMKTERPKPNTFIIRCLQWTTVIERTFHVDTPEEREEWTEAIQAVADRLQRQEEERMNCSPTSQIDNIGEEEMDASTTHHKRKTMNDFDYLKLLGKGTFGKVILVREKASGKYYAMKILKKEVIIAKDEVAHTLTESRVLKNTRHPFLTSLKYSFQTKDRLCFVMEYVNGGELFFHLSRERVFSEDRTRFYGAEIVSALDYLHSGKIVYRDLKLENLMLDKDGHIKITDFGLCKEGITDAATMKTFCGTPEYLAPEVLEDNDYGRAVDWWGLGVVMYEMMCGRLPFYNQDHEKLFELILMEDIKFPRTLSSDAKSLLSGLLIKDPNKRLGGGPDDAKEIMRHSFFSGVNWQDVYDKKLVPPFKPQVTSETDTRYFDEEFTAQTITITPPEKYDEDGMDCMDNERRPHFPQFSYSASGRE

Regarding `Cc1cnn2c1-c1cc(C(=O)N[C@H](CN)Cc3ccc(F)c(F)c3)sc1CCC2` [Embodiment 35], the IC50 turned out to be 0.43 nM against Akt1, 22 nM at Akt2, 34 nM at Akt3 and 150 nM with LNCaP cells.
Turning to `NC[C@H](Cc1cc(F)cc(F)c1)NC(=O)c1cc2c(s1)CCCn1ncc(Br)c1-2` [Embodiment 19], the IC50 against Akt1 was determined as 0.03 nM; against Akt2, 8 nM; on Akt3, 8.7 nM; in the test with LNCaP cells it was 23 nM.
For the compound `Cc1cnn2c1-c1cc(C(=O)N[C@H](CN)Cc3ccc(F)c(F)c3)sc1OCC2` [Embodiment 39], the IC50 against Akt1 stood at 1.5 nM; at Akt2 it was 76 nM; on Akt3, 122 nM; with LNCaP cells, 144 nM.
On the same counts, the results for `CCc1cnn2c1-c1cc(C(=O)N[C@H](CN)Cc3cccc(F)c3)sc1CCC2` [Embodiment 25] are 5.22 nM, 143 nM, 83 nM and 389 nM.
On the same counts, the results for `Cc1cnn2c1-c1cc(C(=O)N[C@H](CN)Cc3cccc(F)c3)sc1CCC2` [Embodiment 22] are 2.18 nM, 26 nM, 60 nM and 61 nM.
`N#Cc1cnn2c1-c1cc(C(=O)N[C@H](CN)Cc3ccc(F)c(F)c3)sc1OCC2` [Embodiment 42]: the IC50 stood at 27.5 nM against Akt1, 900 nM at Akt2, 416 nM against Akt3 and 663 nM in the test with LNCaP cells.
`NC[C@H](Cc1ccc(F)cc1F)NC(=O)c1cc2c(s1)CCCn1ncc(Cl)c1-2` [Embodiment 5]: the IC50 on Akt1 was 2.54 nM; on Akt2 it was 77 nM; against Akt3, 77 nM; in the test with LNCaP cells, 199 nM.
As to `NC[C@H](Cc1cc(F)cc(F)c1)NC(=O)c1cc2c(s1)OCCn1ncc(Br)c1-2` [Embodiment 41], the IC50 against Akt1 was 1.45 nM; against Akt2, 39 nM; on Akt3 it was 57 nM; in the test on LNCaP cells, 62 nM.
For `NC[C@H](Cc1cccnc1)NC(=O)c1cc2c(s1)CCCn1ncc(Cl)c1-2` [Embodiment 2], in that order: 6.64 nM, 266 nM, 294 nM and 666 nM.
For the compound `NC[C@H](Cc1ccc(F)c(F)c1)NC(=O)c1cc2c(s1)OCCn1ncc(Br)c1-2` [Embodiment 37], the IC50 amounted to 1.73 nM on Akt1, 35 nM on Akt2 and 29 nM against Akt3.
`COC1CCn2ncc(Cl)c2-c2cc(C(=O)N[C@H](CN)Cc3cccc(F)c3)sc21` (stereo partly drawn) [Embodiment 30]: the IC50 on Akt1 came to 12.4 nM; on Akt2 it was 281 nM; against Akt3 it was 485 nM; in the test on LNCaP cells, 654 nM.
For `NC[C@H](Cc1cccc(F)c1)NC(=O)c1cc2c(s1)CCCn1ncc(C(F)(F)F)c1-2` [Embodiment 27], in that order: 14.7 nM, 304 nM, 119 nM and 971 nM.
On the same counts, the results for `NC[C@H](Cc1ccncc1)NC(=O)c1cc2c(s1)CCCn1ncc(Cl)c1-2` [Embodiment 3] are 39 nM, 163 nM, 1130 nM and 2010 nM.
On the same counts, the results for `NC[C@H](Cc1cccc(Cl)c1)NC(=O)c1cc2c(s1)CCCn1ncc(Cl)c1-2` [Embodiment 4] are 0.6 nM, 32 nM, 40 nM and 182 nM.
Regarding `NC[C@H](Cc1ccccc1F)NC(=O)c1cc2c(s1)CCCn1ncc(Cl)c1-2` [Embodiment 6], the IC50 at Akt1 was 3.78 nM; at Akt2 it was 101 nM; against Akt3 it was 95 nM; with LNCaP cells, 297 nM.
On the same counts, the results for `NC[C@H](Cc1cccc(F)c1)NC(=O)c1cc2c(s1)CCCn1ncc(-c3ccccc3)c1-2` [Embodiment 23] are 8.84 nM, 372 nM, 52 nM and 1340 nM.
As for `NC[C@H](Cc1ccc(F)c(F)c1)NC(=O)c1cc2c(o1)CCCn1ncc(Cl)c1-2` [Embodiment 21], the IC50 against Akt1 is 13.3 nM; on Akt2, 312 nM; on Akt3 it was 98 nM; with LNCaP cells it was 615 nM.
For `NC[C@H](Cc1cccc(F)c1)NC(=O)c1cc2c(s1)C(=O)CCn1ncc(Cl)c1-2` [Embodiment 31], in that order: 124 nM, 3130 nM, 819 nM and 5710 nM.
On the same counts, the results for `Cc1cnn2c1-c1cc(C(=O)N[C@H](CN)Cc3cc(F)cc(F)c3)sc1OCC2` [Embodiment 40] are 0.87 nM, 66 nM, 170 nM and 87 nM.
For `NC[C@H](Cc1ccc(Cl)cc1)NC(=O)c1cc2c(s1)CCCn1ncc(Cl)c1-2` [Embodiment 8], in that order: 3.62 nM, 107 nM, 69 nM and 534 nM.
Turning to `CN(C)C[C@H](Cc1cccc(F)c1)NC(=O)c1cc2c(s1)CCCn1ncc(Cl)c1-2` [Embodiment 12], the IC50 on Akt1 stood at 116 nM; against Akt2, 4830 nM; at Akt3, 867 nM; in the test on LNCaP cells, 4890 nM.
For `NC[C@H](Cc1ccc(Cl)c(Cl)c1)NC(=O)c1cc2c(s1)CCCn1ncc(Cl)c1-2` [Embodiment 9], in that order: 1.39 nM, 25 nM, 44 nM and 236 nM.
Regarding `CNC[C@H](Cc1cccc(F)c1)NC(=O)c1cc2c(s1)CCCn1ncc(Cl)c1-2` [Embodiment 34], the IC50 amounted to 36 nM against Akt1, 983 nM at Akt2, 513 nM on Akt3 and 2360 nM in the test on LNCaP cells.
On the same counts, the results for `NC[C@H](Cc1ccc(F)c(F)c1)NC(=O)c1cc2c(s1)OCCn1ncc(Cl)c1-2` [Embodiment 38] are 0.36 nM, 57 nM, 68 nM and 118 nM.
On the same counts, the results for `NC[C@@H](NC(=O)c1cc2c(s1)CCCn1ncc(Cl)c1-2)c1ccccc1` [Embodiment 13] are 11 nM, 188 nM, 189 nM and 514 nM.
For `NC[C@H](Cc1ccc(F)c(F)c1)NC(=O)c1cc2c(s1)CCCn1ncc(Br)c1-2` [Embodiment 18], in that order: 0.27 nM, 8 nM, 10 nM and 77 nM.
`NC[C@H](Cc1ccc(F)c(F)c1F)NC(=O)c1cc2c(s1)CCCn1ncc(Br)c1-2` [Embodiment 15]: the IC50 on Akt1 came out at 0.67 nM; against Akt2, 20 nM; at Akt3, 16 nM; with LNCaP cells, 85 nM.
In the case of `NC[C@H](Cc1cccc(F)c1)NC(=O)c1cc2c(s1)C(O)CCn1ncc(Cl)c1-2` (stereo partly drawn) [Embodiment 32], the IC50 against Akt1 is 117 nM; against Akt2 it was 2930 nM; at Akt3, 814 nM; in the test with LNCaP cells, > 10000 nM.
For `NCC(CCc1ccccc1)NC(=O)c1cc2c(s1)CCCn1ncc(Cl)c1-2` (stereo not drawn) [Embodiment 29], in that order: 36 nM, 1100 nM, 783 nM and 2620 nM.
For `NC[C@H](Cc1ccccn1)NC(=O)c1cc2c(s1)CCCn1ncc(Br)c1-2` [Embodiment 20], in that order: 11 nM, 428 nM, 374 nM and 487 nM.
On the same counts, the results for `NC[C@H](Cc1cc(F)ccc1F)NC(=O)c1cc2c(s1)CCCn1ncc(Br)c1-2` [Embodiment 17] are 0.68 nM, 38 nM, 41 nM and 230 nM.
